Test results from patent US20100249248A1, “LIGAND AGENTS FOR PEROXISOME PROLIFERATOR-ACTIVATED RECEPTORS (PPARs)” (Suntory Holdings Limited, priority 2007, published 2010).
Values joined by “and” are separate entries in the source; they are usually repeats but may differ in a detail not shown here. Equal values may be shown once. One block for each compound: values may come before it.

Tests used:
Type in all cases: cell-based
PPARγ = biological target: T1, PPARγ (Rattus norvegicus, UniProt O88275); experiment: PPARγ ligand activity, PPRE-luciferase reporter in CHO/PPARγ/PPRE cells; details: Table 4; positive control run beside each sample; 25 μM
T1 construct: expressed in transfected cells
T1 sequence (O88275 1-505): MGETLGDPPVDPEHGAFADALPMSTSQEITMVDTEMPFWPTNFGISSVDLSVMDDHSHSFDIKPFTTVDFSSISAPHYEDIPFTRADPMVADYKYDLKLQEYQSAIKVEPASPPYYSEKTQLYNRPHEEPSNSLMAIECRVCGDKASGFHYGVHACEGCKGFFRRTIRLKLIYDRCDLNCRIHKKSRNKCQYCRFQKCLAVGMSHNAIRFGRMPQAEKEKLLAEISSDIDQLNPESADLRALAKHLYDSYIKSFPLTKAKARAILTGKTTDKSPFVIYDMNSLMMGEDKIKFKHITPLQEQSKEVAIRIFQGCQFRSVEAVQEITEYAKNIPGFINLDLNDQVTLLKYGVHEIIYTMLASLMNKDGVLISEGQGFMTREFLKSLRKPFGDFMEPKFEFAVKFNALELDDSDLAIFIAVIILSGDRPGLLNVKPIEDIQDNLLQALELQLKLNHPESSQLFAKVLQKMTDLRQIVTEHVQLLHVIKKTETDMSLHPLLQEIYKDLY
Source text: CHO cells used for measurement of PPARγ ligand activity were obtained in the following manner.
A PPAR reporter plasmid (pPPRE-Luc) was derived from a reporter plasmid, pGL3 (Promega), which contains the SV40 promoter gene and the firefly luciferase gene by being modified to have 3 copies of a PPAR-responsive sequence (PPRE) upstream of the SV40 promoter gene. A PPARγ expression plasmid (pKD-rPPARγ) was obtained by inserting the rat PPARγ gene into an SV40 promoter-driven expression plasmid for mammalian cells. pPPRE-Luc and pKD-rPPARγ were co-transfected into CHO(dhfr-) cells (dihydrofolate reductase-deficient cell line of Chinese hamster ovary cells) using Lipofectamine (Invitorgen). The cells were cultured in D-MEM medium (GIBCO) almost free from thymidine and containing dialyzed fetal bovine serum (GIBCO) to thereby obtain a stable transformant (CHO/PPARγ/PPRE) retaining pPPRE-Luc and pKD-rPPARγ.
The above cells were seeded in 96-well culture plates at 1×10^4 cells/well and cultured at 37° C. under 5% CO2 for 24 hours. […] After washing with phosphate-buffered saline (PBS-), the cells were lysed with a cytolysis solution (Cell Culture Lysis Reagent: Promega) and measured for the luminescence intensity of luciferase with a multilabel counter (Wallac) in the presence of a Luciferase Assay Reagent (Promega). […]

PPARδ = biological target: T2, PPARδ (Mus musculus, UniProt P35396); experiment: PPARδ ligand activity, GAL4::mPPARδ luciferase reporter assay in HepG2 cells
T2 construct: expressed in transfected cells; host or cells: HepG2 cells (human liver cancer-derived)
T2 sequence (P35396 1-440): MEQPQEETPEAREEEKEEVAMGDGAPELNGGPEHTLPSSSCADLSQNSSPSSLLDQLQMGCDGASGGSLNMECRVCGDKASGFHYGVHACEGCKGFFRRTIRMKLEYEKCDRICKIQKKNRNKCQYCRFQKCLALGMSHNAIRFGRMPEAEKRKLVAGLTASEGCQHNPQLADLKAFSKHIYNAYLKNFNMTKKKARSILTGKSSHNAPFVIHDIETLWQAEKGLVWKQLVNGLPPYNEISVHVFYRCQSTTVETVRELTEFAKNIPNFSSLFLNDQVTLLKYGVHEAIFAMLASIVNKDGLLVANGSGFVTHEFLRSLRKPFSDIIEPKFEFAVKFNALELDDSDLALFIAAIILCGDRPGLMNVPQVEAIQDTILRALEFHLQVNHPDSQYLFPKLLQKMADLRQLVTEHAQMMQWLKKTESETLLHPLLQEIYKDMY
Procedure: HepG2 cells (human liver cancer-derived cultured cells) were seeded in 96-well culture plates at 1×10^4 cells/well and cultured at 37° C. under 5% CO2 for 24 hours. The medium used was RPMI1640 (Nissui Pharmaceutical Co., Ltd., Japan) containing 10% FBS (fetal bovine serum; Equitech-Bio) and 0.3 g/L L-Glutamine (Nissui Pharmaceutical Co., Ltd., Japan). These cells were washed with OPTI-MEM (Gibco) and then transfected with pBIND/GAL4::mPPARδ and pG51uc (Promega). […]
At about 24 hours after transfection, the medium was replaced with another medium containing a plant extract, followed by culturing for 24 hours. […] After washing with phosphate-buffered saline (PBS—), the cells were lysed with a cytolysis solution (Cell Culture Lysis Reagent: Promega) and measured for the luminescence intensity of luciferase with a multilabel counter (Wallac) in the presence of a Luciferase Assay Reagent (Promega). […] For assessment of ligand activity, the ratio of luminescence intensity in a sample to that in the control (vehicle control) was defined as the luminescence ratio of PPARδ ligand activity in the sample, and a sample showing a value of 1.3 or greater was determined as having PPARδ ligand activity.
The ethanol extract of each plant obtained in Sample Preparation Example 2 was measured for its PPARγ ligand activity in the same manner as shown in Example 1. […]

PPARα = biological target: T3, PPARα (Mus musculus, UniProt P23204); experiment: PPARα ligand activity, GAL4::mPPARα luciferase reporter assay in HepG2 cells; details: Table 3; positive control run beside each sample; 25 μM
T3 construct: expressed in transfected cells; host or cells: HepG2 cells (human liver cancer-derived)
T3 sequence (P23204 1-468): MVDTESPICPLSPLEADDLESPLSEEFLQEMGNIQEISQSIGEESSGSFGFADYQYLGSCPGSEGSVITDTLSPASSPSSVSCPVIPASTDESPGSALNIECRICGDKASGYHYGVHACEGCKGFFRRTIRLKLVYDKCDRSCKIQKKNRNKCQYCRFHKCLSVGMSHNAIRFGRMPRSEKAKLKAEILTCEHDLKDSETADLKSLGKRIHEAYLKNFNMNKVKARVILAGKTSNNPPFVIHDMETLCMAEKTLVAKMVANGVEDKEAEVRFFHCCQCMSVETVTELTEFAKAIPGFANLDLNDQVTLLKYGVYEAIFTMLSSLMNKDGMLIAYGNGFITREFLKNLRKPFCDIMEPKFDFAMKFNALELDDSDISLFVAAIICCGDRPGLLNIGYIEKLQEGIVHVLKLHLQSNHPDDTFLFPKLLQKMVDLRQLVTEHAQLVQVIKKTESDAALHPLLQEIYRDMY
Procedure: HepG2 cells (human liver cancer-derived cultured cells) were seeded in 96-well culture plates at 1×10^4 cells/well and cultured at 37° C. under 5% CO2 for 24 hours. The medium used was RPMI1640 (Nissui Pharmaceutical Co., Ltd., Japan) containing 10% FBS (fetal bovine serum; Equitech-Bio) and 0.3 […] Pharmaceutical Co., Ltd., Japan). […] At about 24 hours after transfection, the medium was replaced with another medium containing a plant extract, followed by culturing for 24 hours. As a vehicle control, DMSO was used and added in 1/100 volume to the medium. After washing with phosphate-buffered saline (PBS-), the cells were lysed with a cytolysis solution (Cell Culture Lysis Reagent: Promega) and measured for the luminescence intensity of luciferase with a multilabel counter (Wallac) in the presence of a Luciferase Assay Reagent (Promega). On the other hand, a synthetic PPARδ agonist, L-165041 (Sigma, […]), was used as a positive control. […] On the other hand, a synthetic PPARα agonist, WY-14643 (Sigma, 25 μM), was used as a positive control.

Compound: CC1(COc2ccc(CC3SC(=O)NC3=O)cc2)CCCCC1 (stereo not shown) [Ciglitizone]
Luminescence ratio in Ciglitizone (PPARγ): 2.2 and 2.5 and 2.6 and 2.7 and 3.0 and 2.4

Luminescence ratio in L-165041 (PPARδ; Table 6, positive control run beside each hot water extract): 4.5 and 3.8 and 6.2 and 5.8
Compound: CCCc1c(OCCCOc2ccc(OCC(=O)O)cc2)ccc(C(C)=O)c1O [L-165041]
Luminescence ratio in L-165041 (PPARδ; Table 5, positive control run beside each ethanol extract): 4.5 and 4.9 and 6.1 and 6.2 and 5.2 and 4.8 and 4.7

Luminescence ratio in WY-14643 (PPARα): 4.2 and 4.4 and 7.6
Compound: Cc1cccc(Nc2cc(Cl)nc(SCC(=O)O)n2)c1C [WY-14643]
